Measured values taken from US20100081661A1, “HEME OXYGENASE INHIBITORS, SCREENING METHODS FOR HEME OXYGENASE INHIBITORS AND METHODS OF USE OF HEME OXYGENASE INHIBITORS FOR ANTIMICROBIAL THERAPY” (UNIVERSITY OF MARYLAND, BALTIMORE, priority 2006, published 2010).
Read-outs that look alike come from different tables or passages of the source.

Legend:
nm-HO [1] = target: T1, nm-HO (Neisseria meningitidis, UniProt Q9AH50); assay: biochemical; assay type: binding
pa-HO [2] = target: T2, pa-HO (Pseudomonas aeruginosa, UniProt O69002); assay type: binding; conditions: for NMR sat. transfer: Table 2, paHO; for NMR pa-HO: Table 3A; as to NMR pa-HO: key: Shows binding by NMR method = +; Ambig = ambiguous
pa-HO [3] = target: T2, pa-HO; assay: biochemical; assay type: binding; conditions: for Kd: read-out: Fluorescence pa-HO Kd
P. aeruginosa = assay: MIC50 for P. aeruginosa; assay type: cell-based, Pseudomonas aeruginosa; conditions: for MIC / minimum inhibition conc: Table 2; for MIC: read-out: minimum inhibition conc
C. elegans = C. elegans assay (infected worms); assay type: in vivo; conditions: for C. elegans: Table 3A, infected worms
nm-HO [4] = target: T1, nm-HO; assay type: cell-based; set-up: key to E. coli assay biliverdin pigmentation: + biliverdin observed in cell pellet; − biliverdin not observed
P. aeruginosa MPA01 = assay type: cell-based; conditions: 500 μM and above
[5] = Pseudomonas aeruginosa, Table 3A, read-out: MIC 50
[6] = Table 2, colour of cell pellet (white = no biliverdin, green = biliverdin) or toxicity to cells
[7] = Table 3B, nm-HO in E. coli expression system
[8] = Pseudomonas aeruginosa, Table 3B, P. aeruginosa, read-out: MIC 50
[9] = Table 4, target not named, values match nm-HO of Table 3A

T1 sequence (Q9AH50 1-209): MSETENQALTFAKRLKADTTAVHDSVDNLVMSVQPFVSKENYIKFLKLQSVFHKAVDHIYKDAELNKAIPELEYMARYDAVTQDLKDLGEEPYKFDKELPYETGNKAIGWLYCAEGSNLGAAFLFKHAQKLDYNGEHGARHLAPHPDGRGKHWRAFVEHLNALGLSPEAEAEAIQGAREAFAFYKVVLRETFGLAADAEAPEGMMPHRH
T2 sequence (O69002 1-198): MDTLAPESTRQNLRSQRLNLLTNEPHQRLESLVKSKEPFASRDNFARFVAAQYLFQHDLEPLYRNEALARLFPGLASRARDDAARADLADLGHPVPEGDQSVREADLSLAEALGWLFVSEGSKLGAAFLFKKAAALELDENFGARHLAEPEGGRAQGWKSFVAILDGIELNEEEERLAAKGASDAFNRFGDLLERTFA

For `O=C(Cc1ccc([N+](=O)O)cc1)N/N=C/c1ccc(O)cc1` [Compound 44], the Kd (nm-HO [1]) was 12.3 µM, the NMR sat. transfer (pa-HO [2]) was “Alias: CB-22 fluorescence binding: nd minimum inhibition conc: nd NMR sat. transfer: tested, ambiguous” and the “NMR pa-HO” value (pa-HO [2]) was “Ambig”.
With `CC(=O)Nc1ccc(/N=C/c2ccco2)cc1` [Compound 119] the fluorescence binding (pa-HO [3]) was “yes” and the NMR sat. transfer (pa-HO [2]) was “do not bind paHO”.
In the case of `NCc1ccc2c3c(cccc13)C(=O)N2` [Compound 87], the MIC (P. aeruginosa; Pseudomonas aeruginosa) is reported as over 125 mg/L, the MIC50 (P. aeruginosa; [5]) is reported as over 125 mg/L and the “MIC50” value (P. aeruginosa; Table 3B, P. aeruginosa) is reported as over 125 mg/L. The NMR sat. transfer (pa-HO [2]) was “yes, bind paHO”, the “NMR pa-HO” value (pa-HO [2]) was “+” and the C. elegans (C. elegans) was “Inconclusive”.
With `O=C(NNC(=O)c1ccncc1)c1ccncc1` [Compound 24] the fluorescence binding (pa-HO [3]) was “Alias: CD-18 (Compound 7 in manuscript) fluorescence binding: yes minimum inhibition conc: nd NMR sat. transfer: nd E. coli assay: green pellet”, the E. coli assay (nm-HO [4]; [6]) was “Alias: CD-18 (Compound 7 in manuscript) fluorescence binding: yes minimum inhibition conc: nd NMR sat. transfer: nd E. coli assay: green pellet” and the “Biliverdin detection from E. coli Assay” value (nm-HO [4]; Table 3A, pellet colour) was “Green Pellet”. The “Biliverdin detection from E. coli Assay” value (nm-HO [4]; [7]) was “Green Pellet” and the “E. coli assay” value (nm-HO [4]; Table 5) was “Green Pellet”.
In the case of `O=C(c1ccco1)C12CN3CN(CN(C3)C1)C2` [Compound 133], the MIC50 (P. aeruginosa; [5]) is reported as over 380 mg/L, the “MIC50” value (P. aeruginosa; Table 3B, P. aeruginosa) is reported as over 380 mg/L and the E. coli assay (nm-HO [4]; [6]) is reported as “Alias: CB-9 fluorescence binding: nd minimum inhibition conc: nd NMR sat. transfer: nd E. coli assay: green pellet”. The “Biliverdin detection from E. coli Assay” value (nm-HO [4]; Table 3A, pellet colour) was “Green Pellet”, the “Biliverdin detection from E. coli Assay” value (nm-HO [4]; [7]) was “Green Pellet” and the E. coli assay (nm-HO [4]; Table 4) was “Green Pellet”.
With `O=C(O)CN1C(=O)c2ccccc2C1=O` [Compound 150] the MIC50 (P. aeruginosa; [8]) was over 1000 mg/L, the minimum inhibition conc (P. aeruginosa) was “no antibacterial activity” and the “MIC 50 (ug/ml)” value (P. aeruginosa; Table 3A) was “no antibact activity”. The fluorescence binding (pa-HO [3]) was “yes”, the NMR sat. transfer (pa-HO [2]) was “yes, bind paHO” and the “NMR pa-HO” value (pa-HO [2]) was “+”.
`O=C1C=C(Nc2ccccc2O)c2ccccc2C1=O` [Compound 114] was tested, and the Kd (nm-HO [1]) was 28.8 µM, the fluorescence binding (pa-HO [3]) was “yes” and the E. coli assay (nm-HO [4]; [6]) was “toxic to cells”. The “Biliverdin detection from E. coli Assay” value (nm-HO [4]; Table 3A, pellet colour) was “Toxic”, the “Biliverdin detection from E. coli Assay” value (nm-HO [4]; [7]) was “Toxic” and the “E. coli assay” value (nm-HO [4]; Table 6) was “Toxic”.
In the case of `CCN(CC)c1ccc(/C=N/n2nnnc2N)c(O)c1` [Compound 149], the fluorescence binding (pa-HO [3]) is reported as “yes” and the NMR sat. transfer (pa-HO [2]) is reported as “do not bind paHO”.
With `NC(=O)c1ccc(NC(=O)/C=C\C(=O)O)cc1Cl` [Compound 8] the MIC (P. aeruginosa; Pseudomonas aeruginosa) was over 750 mg/L, the MIC50 (P. aeruginosa; [5]) was over 750 mg/L and the “MIC50” value (P. aeruginosa; Table 3B, P. aeruginosa) was over 750 mg/L. The E. coli assay (nm-HO [4]; [6]) was “green pellet”, the “Biliverdin detection from E. coli Assay” value (nm-HO [4]; Table 3A, pellet colour) was “Green Pellet” and the “Biliverdin detection from E. coli Assay” value (nm-HO [4]; [7]) was “Green Pellet”. The E. coli assay (nm-HO [4]; Table 4) was “Green Pellet”.
`COc1ccc(C(=O)CCC(=O)O)c(C)c1` [Compound 59] was tested, and the MIC (P. aeruginosa; Pseudomonas aeruginosa) was over 1000 mg/L, the MIC50 (P. aeruginosa; [5]) was over 1000 mg/L and the “MIC50” value (P. aeruginosa; Table 3B, P. aeruginosa) was over 1000 mg/L. For the same molecule, the fluorescence binding (pa-HO [3]) was “yes”, the NMR sat. transfer (pa-HO [2]) was “yes, bind paHO” and the “NMR pa-HO” value (pa-HO [2]) was “+”.
For `O=C(O)/C=C\C(=O)Nc1ccc(Nc2ccccc2)cc1` [Compound 75], the MIC (P. aeruginosa; Pseudomonas aeruginosa) was over 1000 mg/L, the MIC50 (P. aeruginosa; [5]) was over 1000 mg/L and the “MIC50” value (P. aeruginosa; Table 3B, P. aeruginosa) was over 1000 mg/L. For the same molecule, the Kd (nm-HO [1]) was 15.6 µM, the fluorescence binding (pa-HO [3]) was “yes” and the Kd (pa-HO [3]; Table 3A) was 20.1 µM. The E. coli assay (nm-HO [4]; [6]) was “white pellet”, the “Biliverdin detection from E. coli Assay” value (nm-HO [4]; Table 3A, pellet colour) was “White pellet” and the “Biliverdin detection from E. coli Assay” value (nm-HO [4]; [7]) was “White pellet”. For the same molecule, the E. coli assay (nm-HO [4]; Table 4) was “White pellet” and the C. elegans (C. elegans) was “no effect”.
For `CN(C)c1ccc(/C=N/NC(=N)N)cc1` [Compound 1], the MIC (P. aeruginosa; Pseudomonas aeruginosa) was over 160 mg/L, the MIC50 (P. aeruginosa; [5]) was over 160 mg/L and the “MIC50” value (P. aeruginosa; Table 3B, P. aeruginosa) was over 160 mg/L. The Kd (nm-HO [1]; Table 3A, read-out: Fluorescence nm-HO Kd) was 22.9 µM, the Kd (nm-HO [1]; Table 4, target not named, values match nm-HO of Table 3A, read-out: Kd) was 22.9 µM and the fluorescence binding (pa-HO [3]) was “yes”. For the same molecule, the Kd (pa-HO [3]; Table 3A) was 30.1 µM, the NMR sat. transfer (pa-HO [2]) was “yes, bind paHO” and the “NMR pa-HO” value (pa-HO [2]) was “+”. The “E. coli assay biliverdin pigmentation” value (nm-HO [4]; E. coli cells expressing nm-HO, cell pellet) was “−”, the E. coli assay (nm-HO [4]; [6]) was “white pellet” and the “Biliverdin detection from E. coli Assay” value (nm-HO [4]; Table 3A, pellet colour) was “White pellet”. The “Biliverdin detection from E. coli Assay” value (nm-HO [4]; [7]) was “White pellet”, the E. coli assay (nm-HO [4]; Table 4) was “White pellet” and the C. elegans assay (C. elegans; Table 2) was “yes”.
`O=C(O)/C=C\C(=O)Nc1ccc(Nc2ccccc2)cc1` [chembridge010392] was tested, and the “inhibitory effect in the presence of Fe(III)-pyoverdine” value (P. aeruginosa MPA01) was “slight inhibitory effect”.
In the case of `Cl.N=C(N/N=C\c1cccnc1)N/N=C\c1cccnc1` [Compound 148], the MIC50 (P. aeruginosa; [8]) is reported as over 1000 mg/L, the minimum inhibition conc (P. aeruginosa) is reported as “no antibacterial activity” and the “MIC 50 (ug/ml)” value (P. aeruginosa; Table 3A) is reported as “no antibact activity”. For the same molecule, the Kd (nm-HO [1]) was 12.2 µM, the Kd (nm-HO [1]; [9]) was 12.2 µM and the fluorescence binding (pa-HO [3]) was “Alias: CB-31 Compound 1 in manuscript fluorescence binding: yes minimum inhibition conc: no antibacterial activity NMR sat. transfer: E. coli assay: white pellet”. The Kd (pa-HO [3]) was 15.9 µM, the E. coli assay (nm-HO [4]; [6]) was “white pellet” and the “Biliverdin detection from E. coli Assay” value (nm-HO [4]; Table 3A, pellet colour) was “White pellet”. For the same molecule, the “Biliverdin detection from E. coli Assay” value (nm-HO [4]; [7]) was “White pellet” and the E. coli assay (nm-HO [4]; Table 4) was “White pellet”.
For `O=C(Cc1ccc(Cl)cc1)N/N=C/c1c[nH]c2ccccc12` [Compound 126], the MIC50 (P. aeruginosa; [8]) was over 1000 mg/L, the minimum inhibition conc (P. aeruginosa) was “no antibacterial activity” and the “MIC 50 (ug/ml)” value (P. aeruginosa; Table 3A) was “no antibact activity”. For the same molecule, the Kd (nm-HO [1]) was 14.1 µM, the Kd (nm-HO [1]; [9]) was 14.1 µM and the fluorescence binding (pa-HO [3]) was “yes”. The Kd (pa-HO [3]; Table 3A) was 15.8 µM, the E. coli assay (nm-HO [4]; [6]) was “white pellet” and the “Biliverdin detection from E. coli Assay” value (nm-HO [4]; Table 3A, pellet colour) was “White pellet”. For the same molecule, the “Biliverdin detection from E. coli Assay” value (nm-HO [4]; [7]) was “White pellet” and the E. coli assay (nm-HO [4]; Table 4) was “White pellet”.
